Molecules are shown by their SMILES.

One molecule from US20220381779A1, “METHODS FOR THE DIAGNOSIS OF BURULI ULCER” (INSERM (INSTITUT NATIONAL DE LA SANTÉ ET DE LA RECHERCHE …, priority 2019, published 2022) can be followed below.

In the assay the test system is CD4+ T cells. Briefly: Neutralizing activity assay: cytokine production by PMA/ionomycin-stimulated CD4+ T cells in contact with mycolactone. In kind it is cell-based, C57Bl/6 mice. The conditions noted are these: mycolactone 4 ng/mL, 6 h, compared to positive control (T cells only stimulated). The protocol: FIG. 2: Neutralization of mycolactone by cutaneous immunoglobulin from FVB/N mice infected with M. ulcerans. CD4+ lymphocytes were stimulated with PMA/ionomycin. Mycolactone was used at a concentration of 4 ng/mL. Immunoglobulins purified from the skin of A) FVB/N mice or B) C57Bl/6 mice infected with M. ulcerans were used at a ratio of 10 immunoglobulin molecules per molecule of mycolactone. Left panel: IL-2 quantification, Right panel: IFNγ quantification. The data shown correspond to one experiment performed in triplicate (mean±SD).
CD4+ T cells were isolated from the spleens of C57Bl/6 mice by magnetic sorting (MACS technology kit 130-104-454), according to the manufacturer's instructions (Miltenyi Biotec). The purity of CD4+ T-cell preparations was determined by flow cytometry, with PE-conjugated anti-CD4 monoclonal antibody (eBioscience) and FITC-conjugated anti-CD3E monoclonal antibody (eBioscience). […] IL-2 and IFN-γ were quantified by ELISA (eBioscience), according to the manufacturer's instructions (Mouse IL-2 Ready-SET-Go: 88-7024 and Mouse IFN-γ Ready-SET-Go: 88-7314 respectively).
In this context, we assessed whether these antibodies could not only recognized but also neutralized mycolactone, by evaluating cytokines production by T lymphocytes as an indicator of the immunomodulatory property of mycolactone. […]

`CC(=C\C=C\C(C)=C\[C@H](O)[C@@H](O)C[C@H](C)O)/C=C(C)/C=C/C(=O)O[C@H]1CCCC(=O)O[C@@H]([C@@H](C)C/C(C)=C/[C@@H](C)[C@H](O)C[C@@H](C)O)C/C=C(\C)C[C@@H]1C` [mycolactone, [(6S,7S,9E,12R)-12-[(E,2S,6R,7R,9R)-7,9-dihydroxy-4,6-dimethyldec-4-en-2-yl]-7,9-dimethyl-2-oxo-1-oxacyclododec-9-en-6-yl] (2E,4E,6E,8E,10E,12S,13S,15S)-12,13,15-trihydroxy-4,6,10-trimethylhexadeca-2,4,6,8,10-pentaenoate]: the “IFNγ production by T cells” value was “greatly decreased” and the “IL-2 production by T cells” value is “greatly decreased”.
